Results from patent US9572347B2, “Method for inactivating a virus” (THE UNIVERSITY OF TOKYO, priority 2009, dated 2017).

What follows are compounds tested on Qβ phage (NBRC 20012) (assay: phage inactivation ability test on sample-coated glass plate (Example 1 method)). Conditions: same copper ion ratio, contact of 30 minutes, FIG. 2.
Assay type: cell-based

| Compound | phage inactivation effect |
| --- | --- |
| [Cl][Cu] [CuCl, cuprous chloride] | almost the same phage inactivation ability as that of cuprous oxide |
| cuprous sulfide [Cu2S] | high phage inactivation effect |
| cupric sulfide [CuS, reference compound] | almost no inactivation effect |
| [Cu+].[I-] [CuI, cuprous iodide] | high phage inactivation effect |
